The record followed here is patent publication US10385045B2, “Compound having EP2 agonist activity” (ONO PHARMACEUTICAL CO., LTD., priority 2015, dated 2019).

Bounds are passed on as bounds.

Test system in the first test: not listed separately
Put plainly: Intraocular pressure lowering activity after ocular instillation in rabbit. The note with it: male rabbit (NZW), ocular instillation 30 μL, administration concentration 10 μg/mL, 8 hours after the administration. The test is classed as in vivo. The protocol: As can be easily understood by a person skilled in the art, in an in vivo test, since regarding all test compounds, carboxylic acid which is an active body has poor corneal permeability, pharmacological action of the active body was evaluated by ocular instillation administration of a compound which had been converted into an ester such as an ethyl ester or an isopropyl ester, or an alcohol.
A test compound-containing solution (30 μL) which had been adjusted to each of various concentrations was ocular instillation-administered to the left or right eye of a male rabbit (NZW (Healthy)) under consciousness, and an intraocular pressure was measured before the administration and 8 hours after the administration. An intraocular pressure before the administration was measured on a day before the administration. In measurement of an intraocular pressure, the rabbit was fixed on a wood-made restrainer, and the rabbit was anesthetized by the ocular instillation-administration of an ocular surface anesthetic agent (Benoxil eye drops 0.4%, Santen Pharmaceutical Co., Ltd.). After fitting a blepharostat (Handaya Co., Ltd.) to the rabbit, intraocular pressures of both eyes were measured (6 cases per group) with a pneumatic applanation flat tonometer (Model 30 Classic, REICHERT). A difference between an intraocular pressure value before the administration of a test compound and an intraocular pressure value after the administration of the test compound was calculated as an intraocular pressure lowering rate in accordance with the equation shown below, and the sustainability of intraocular eye lowering action was evaluated.
The administered concentrations were selected on the basis of the EP2 agonist activities measured by the above-mentioned method.
Turning to `COc1ccc(OCCC/C=C/[C@@H]2[C@H]3CC[C@H](c4nc(C(=O)OC(C)C)cs4)O[C@H]3C[C@H]2O)cc1` [Example 4, Isopropyl 2-{(2R,4aR,5R,6R,7aS)-6-hydroxy-5-[(1E)-5-(4-methoxyphenoxy)-1-penten-1-yl]octahydrocyclopenta[b]pyran-2-yl}-1,3-thiazole-4-carboxylate], the “Intraocular pressure lowering rate (%)” value amounted to 19.1%. On to `CC(C)OC(=O)c1csc([C@H]2CC[C@@H]3[C@@H](/C=C/COc4ccccc4C(F)(F)F)[C@H](O)C[C@@H]3O2)n1` [Example 4-3, Isopropyl 2-[(2R,4aR,5R,6R,7aS)-6-hydroxy-5-{(1E)-3-[2-(trifluoromethyl)phenoxy]-1-propen-1-yl}octahydrocyclopenta[b]pyran-2-yl]-1,3-thiazole-4-carboxylate], for which the “Intraocular pressure lowering rate (%)” value turned out to be 12.1%. As for `Cc1cc(OCC[C@@H]2[C@H]3CC[C@H](c4nc(C(=O)OC(C)C)cs4)O[C@H]3C[C@H]2O)ccc1[N+](=O)[O-]` [Example 14, Isopropyl 2-{(2R,4aR,5R,6R,7aS)-6-hydroxy-5-[2-(3-methyl-4-nitrophenoxy)ethyl]octahydrocyclopenta[b]pyran-2-yl}-1,3-thiazole-4-carboxylate], the “Intraocular pressure lowering rate (%)” value turned out to be 23.6%.

The target in a further test is T1, human EP2 receptor (Homo sapiens, UniProt P43116).
T1 construct: expressed in transfected cells; host or cells: CHO cells (EP2-CHO)
T1 sequence (P43116 whole entry): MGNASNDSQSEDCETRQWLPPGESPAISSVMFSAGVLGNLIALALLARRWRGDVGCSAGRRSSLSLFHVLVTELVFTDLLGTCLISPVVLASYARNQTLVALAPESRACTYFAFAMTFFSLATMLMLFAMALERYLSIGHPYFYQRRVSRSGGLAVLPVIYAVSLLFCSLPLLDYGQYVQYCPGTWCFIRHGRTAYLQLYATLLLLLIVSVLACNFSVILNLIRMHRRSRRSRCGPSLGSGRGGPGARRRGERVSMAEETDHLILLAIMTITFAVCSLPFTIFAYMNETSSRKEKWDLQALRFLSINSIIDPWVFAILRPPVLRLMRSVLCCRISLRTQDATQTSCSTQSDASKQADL
The experiment in a line: Measurement of EP2 agonist activity (cAMP concentration) in EP2-CHO cells. The test is classed as cell-based. The note with it: EP2-CHO cells, cAMP production, 30 minutes at room temperature; read-out: EC50 (agonist activity on human EP2 receptor). The protocol: (1) Measurement of Agonist Activity on Various Prostanoid Receptors
Using Chem1 cells or CHO cells in which various prostanoid receptors were forcibly expressed, respectively, agonist activities of test compounds on various prostanoid receptors was determined employing, as a measure, an intracellular cyclic AMP (hereinbelow, abbreviated as “cAMP”) production amount or an intracellular calcium concentration.
Each of the test compound and a control substance (PGE2 and PGF2α) was dissolved in dimethyl sulfoxide (DMSO) to prepare a 10 mmol/L solution. The 10 mmol/L solution thus prepared was thawed upon use, was then serially diluted with DMSO, and was then diluted with a buffered solution for measurement or a buffered solution for measurement 2, and then the resulting solution was subjected to an experiment.
Cells, in which various prostanoid receptors were respectively forcibly expressed, were subjected to static culture at 37° C. in the presence of 5% CO2 using a DMEM medium (Sigma) (for culturing FP-Chem1 cells) containing inactivated (56° C., 30 minutes) 9.8 vol % nondialysed-FBS (Life Technologies), 1 vol % Non Essential Amino Acids (Life Technologies), 10 mmol/L HEPES Buffered solution (Life Technologies), 0.5 vol % GENETICIN (Life Technologies) and 1% penicillin-streptomycin (Life Technologies) or an α-MEM medium (Sigma) (for culturing EP2-CHO cells) containing inactivated (56° C., 30 minutes) 9.8 vol % dialysed-FBS (Life Technologies) and penicillin-streptomycin-glutamine (Life Technologies). Subculturing was carried out in the following manner.
The medium was removed from a culture, and the culture was washed with Ca^2+-free and Mg^2+-free phosphate-buffered physiological saline one time. A proper amount of trypsin-EDTA (Life Technologies) was added to the washed product, and then the resultant product was incubated at 37° C. The cells were detached, and then a medium in a volume that is 10-fold the volume of trypsin-EDTA was added thereto to terminate the enzymatic reaction. The cells were collected in a centrifuge tube and then centrifuged at room temperature at 120 g for 3 minutes, and the supernatant was discarded therefrom. The cells were suspended in a proper amount of the medium and seeded in a culture flask.
On the day of measurement, a medium was removed and EP2-CHO cells were washed one time with a phosphate-buffered physiological saline containing 2 mmol/L EDTA and not containing Ca^2+ and Mg^2+. A proper amount of the phosphate-buffered physiological saline containing 2 mmol/L EDTA and not containing Ca^2+ and Mg^2+ was added to the cells, and this was incubated at 37° C. in the presence of 5% CO2. Subsequently, the cells were detached, then collected in a centrifuge tube and then centrifuged at room temperature at 550 g for 3 minutes, and the supernatant was removed therefrom. The cells were suspended in a proper amount of a buffered solution for measurement 1 (a MEM medium (Invitrogen) containing 1.0 w/v % of bovine serum albumin (Sigma) and 2 μmol/L of diclofenac (Sigma)), and the suspension was centrifuged at room temperature at 200 g for 3 minutes, and the supernatant was removed. The cells were suspended in a buffered solution for measurement 2 (MEM medium (Invitrogen) containing 1.0 w/v % of bovine serum albumin (Sigma), 2 μmol/L of diclofenac (Sigma) and 1 mmol/L of 3-isobutyl-1-methylxanthine), and each 25 μL of the suspension was dispensed into a 96-well ½ area plate so that the number of cells per well became […]. The buffered solution for measurement 2 (25 μL) containing a compound at each of various concentrations was added to each well to carry out a reaction at room temperature for 30 minutes. Measurement of a cAMP concentration was carried out using cAMP HTRF HiRange kit (CIS bio International). In accordance with the two-step protocol of the kit manual, each 25 μL of cAMP-D2 and Cryptase each diluted with a lysis buffer were added. […]
Background: Changes in cAMP serve as a functional read-out for many G protein-coupled receptors.
As usually defined, the EC50 is the concentration at which the effect is half-maximal. For the compound `COc1ccc(OCCC/C=C/[C@@H]2[C@H]3CC[C@H](c4nc(C(=O)O)cs4)O[C@H]3C[C@H]2O)cc1` [Example 2-1, 2-{(2R,4aR,5R,6R,7aS)-6-Hydroxy-5-[(1E)-5-(4-methoxyphenoxy)-1-penten-1-yl]octahydrocyclopenta[b]pyran-2-yl}-1,3-thiazole-4-carboxylic acid], the EC50 worked out at 1.8 nM. With `O=C(O)c1csc([C@H]2CC[C@@H]3[C@@H](/C=C/CCOc4ccccc4)[C@H](O)C[C@@H]3O2)n1` [Example 2-2, 2-{(2R,4aR,5R,6R,7aS)-6-Hydroxy-5-[(1E)-4-phenoxy-1-buten-1-yl]octahydrocyclopenta[b]pyran-2-yl}-1,3-thiazole-4-carboxylic acid], the EC50 came out at 3.9 nM.

Take `O=C(O)c1csc([C@H]2CC[C@@H]3[C@@H](/C=C/CCCOc4ccccc4)[C@H](O)C[C@@H]3O2)n1` [Example 2-4, 2-{(2R,4aR,5R,6R,7aS)-6-Hydroxy-5-[(1E)-5-phenoxy-1-penten-1-yl]octahydrocyclopenta[b]pyran-2-yl}-1,3-thiazole-4-carboxylic acid]: the EC50 was determined as 14 nM. Take `Cc1ccc(OC/C=C/[C@@H]2[C@H]3CC[C@H](c4nc(C(=O)O)cs4)O[C@H]3C[C@H]2O)cc1` [Example 2-9, 2-{(2R,4aR,5R,6R,7aS)-6-Hydroxy-5-[(1E)-3-(4-methylphenoxy)-1-propen-1-yl]octahydrocyclopenta[b]pyran-2-yl}-1,3-thiazole-4-carboxylic acid]: the EC50 was found to be 5.8 nM. Take `O=C(O)c1csc([C@H]2CC[C@@H]3[C@@H](/C=C/COc4ccccc4C(F)(F)F)[C@H](O)C[C@@H]3O2)n1` [Example 2-16, 2-[(2R,4aR,5R,6R,7aS)-6-Hydroxy-5-{(1E)-3-[2-(trifluoromethyl)phenoxy]-1-propen-1-yl}octahydrocyclopenta[b]pyran-2-yl]-1,3-thiazole-4-carboxylic acid]: the EC50 was 1.3 nM. For the compound `CCCCCC(F)(F)/C=C/[C@@H]1[C@H]2CC[C@H](c3nc(C(=O)O)cs3)O[C@H]2C[C@H]1O` [Example 8, 2-{(2R,4aR,5R,6R,7aS)-5-[(1E)-3,3-Difluoro-1-octen-1-yl]-6-hydroxyoctahydrocyclopenta[b]pyran-2-yl}-1,3-thiazole-4-carboxylic acid], the EC50 came to 0.4 nM. Same read-out and setting: with `N#Cc1ccc(CCC(O)/C=C/[C@@H]2[C@H]3CC[C@H](c4nc(C(=O)O)cs4)O[C@H]3C[C@H]2O)cc1` (stereo partly drawn) [Example 10, 2-{(2R,4aR,5R,6R,7aS)-5-[(1E)-5-(4-Cyanophenyl)-3-hydroxy-1-penten-1-yl]-6-hydroxyoctahydrocyclopenta[b]pyran-2-yl}-1,3-thiazole-4-carboxylic acid] the figure was 0.29 nM.

Consider `O=C(O)c1csc([C@H]2CC[C@@H]3[C@@H](/C=C/C(O)CCC4CCCC4)[C@H](O)C[C@@H]3O2)n1` (stereo partly drawn) [Example 10-3, 2-{(2R,4aR,5R,6R,7aS)-5-[(1E)-5-Cyclopentyl-3-hydroxy-1-penten-1-yl]-6-hydroxyoctahydrocyclopenta[b]pyran-2-yl}-1,3-thiazole-4-carboxylic acid], for which the EC50 amounted to 0.11 nM.

For `CCC1([C@@H](O)C/C=C/[C@@H]2[C@H]3CC[C@H](c4nc(C(=O)O)cs4)O[C@H]3C[C@H]2O)CCC1` [Example 11-2, 2-{(2R,4aR,5R,6R,7aS)-5-[(1E,4S)-4-(1-Ethylcyclobutyl)-4-hydroxy-1-buten-1-yl]-6-hydroxyoctahydrocyclopenta[b]pyran-2-yl}-1,3-thiazole-4-carboxylic acid], the EC50 worked out at 0.1 nM. With `Cc1cc(OCC[C@@H]2[C@H]3CC[C@H](c4nc(C(=O)O)cs4)O[C@H]3C[C@H]2O)ccc1[N+](=O)[O-]` [Example 13-20, 2-{(2R,4aR,5R,6R,7aS)-6-Hydroxy-5-[2-(3-methyl-4-nitrophenoxy)ethyl]octahydrocyclopenta[b]pyran-2-yl}-1,3-thiazole-4-carboxylic acid], the EC50 worked out at 5.7 nM.

The test is the same for the next values; noted with them: comparison compounds from prior art documents; read-out: EC50 (EP2 agonist activity) of prior art compounds with analogous structure.
`O=C(O)c1csc([C@H]2CC[C@@H]3[C@@H](/C=C/[C@@H](O)COc4ccccc4)[C@H](O)C[C@@H]3OC2)n1` [reference compound]: the EC50 is not below 10000 nM. Regarding `O=C(O)c1ccc(C2=CC[C@@H]3[C@@H](/C=C/[C@@H](O)C4CCCC4)[C@H](O)C[C@@H]3O2)o1` [reference compound], the EC50 is not below 10000 nM. Regarding `CCCCC[C@H](O)/C=C/[C@@H]1[C@H]2CCC(c3ccccc3CC(=O)O)O[C@H]2C[C@H]1O` (stereo partly shown) [reference compound], the EC50 was not below 10000 nM.
